Values of other authors as cited in patent US11981760B2, “Therapeutic hydrogels and contact lens for corneal melting” (THE REGENTS OF THE UNIVERSITY OF COLORADO, priority 2018, dated 2024).

Compound: c1ccc(CNCc2ccccn2)nc1 [DPA, dipicolylamine]
- association with other metal ions (Ca^2+, Mg^2+, Na^+ and K^+): does not associate strongly
- Kd (five-membered chelate ring, read-out: Kd of Zn^2+ complexation): ~0.01 nM
